Here are results for three molecules from patent publication US7083779B2 (Council of Scientific and Industrial Research, priority 2003, dated 2006).

Structures are written as SMILES.

One data set concerns P. falciparum. Conditions: cited from earlier work.

`[H]/N=C(\N/C(=N/[H])NCCCCCCNC(=N)NC(=N)Nc1ccc(Cl)cc1)Nc1ccc(Cl)cc1` [Chlorhexidine]: the “Reversibility of effect on cultured fibroblasts (cell viability and protein quantification)” value in the data set with cultured fibroblasts is recorded as “damage the cells irreversibly”. Also, the “Cytotoxicity (cell viability)” value in the data set with cultured fibroblasts (0.001 %) is “cytotoxic even at 0.001%”.
With `CC(=O)O[C@@H]1C[C@H]2C(C)(C)C(=O)C=C[C@]2(C)[C@H]2CC[C@@]3(C)[C@H](c4ccoc4)C(=O)[C@H]4O[C@]43[C@@]21C` [nimbinin], the “LC50 against P. falciparum” value in the data set with P. falciparum is 0.72 to 1.74 µg/mL.
As for `CC(=O)O[C@@H]1C[C@H]2C(C)(C)C(=O)CC[C@]2(C)[C@H]2CC[C@@]3(C)[C@H](c4ccoc4)OC(=O)[C@H]4O[C@]43[C@@]21C` [dihydrogedunin], in the data set with P. falciparum, the “LC50 against P. falciparum” value is 0.72 to 1.74 µg/mL.
